Several values for one entry are separate records, joined by “and”; a condition that tells them apart may be missing. Identical values can stand only once.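 Protocol summary: plate cells (96-well), add compound at 5 concentrations, incubate 48 h, interpolate endpoints linearly. GI50 marks 50% less growth. The concentration for full growth arrest is given as TGI.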
Experiments:
Assay in all cases: growth of human tumour cells (NCI), 48 h
786-0 renal = tested on: 786-0 renal
KM12 colon = tested on: KM12 colon
HCT-116 colon = tested on: HCT-116 colon
HS 578T breast = tested on: HS 578T breast
HCC-2998 colon = tested on: HCC-2998 colon
K-562 leukemia = tested on: K-562 leukemia
MALME-3M melanoma = tested on: MALME-3M melanoma
U251 CNS = tested on: U251 CNS
SNB-75 CNS = tested on: SNB-75 CNS
SW-620 colon = tested on: SW-620 colon
SK-MEL-2 melanoma = tested on: SK-MEL-2 melanoma
SK-MEL-5 melanoma = tested on: SK-MEL-5 melanoma
IGROV1 ovarian = tested on: IGROV1 ovarian
M14 melanoma = tested on: M14 melanoma
SF-268 CNS = tested on: SF-268 CNS
SNB-19 CNS = tested on: SNB-19 CNS
HOP-62 NSCLC = tested on: HOP-62 NSCLC
COLO 205 colon = tested on: COLO 205 colon
CCRF-CEM leukemia = tested on: CCRF-CEM leukemia
OVCAR-8 ovarian = tested on: OVCAR-8 ovarian
LOX IMVI melanoma = tested on: LOX IMVI melanoma
OVCAR-3 ovarian = tested on: OVCAR-3 ovarian
NCI-H522 lung = tested on: NCI-H522 lung
SR leukemia = tested on: SR leukemia
HL-60(TB) leukemia = tested on: HL-60(TB) leukemia
MCF7 breast = tested on: MCF7 breast
SF-295 CNS = tested on: SF-295 CNS
HOP-92 NSCLC = tested on: HOP-92 NSCLC
OVCAR-4 ovarian = tested on: OVCAR-4 ovarian

**Q.** Which GI50 (786-0 renal) does the source give for CO[C@@H](C)Cn1c(=O)n(C)c2cnc3ccc(-c4cncc(C(C)(C)O)c4)cc3c21 here?
**A.** 59 nM and 41.8 nM

**Q.** What about the TGI (786-0 renal) of the same compound?
**A.** 2200 nM and 1990 nM

**Q.** And the GI50 (KM12 colon)?
**A.** 326 nM and 122 nM

**Q.** What about the TGI (KM12 colon) of the same compound?
**A.** 12700 nM and > 10000 nM

**Q.** And the GI50 (HCT-116 colon)?
**A.** 303 nM and 187 nM

**Q.** What about the TGI (HCT-116 colon) of the same compound?
**A.** 10800 nM and > 7650 nM

**Q.** And the GI50 (HS 578T breast)?
**A.** 28.6 nM

**Q.** What about the TGI (HS 578T breast) of the same compound?
**A.** 191 nM

**Q.** What about the GI50 (HCC-2998 colon) of the same compound?
**A.** 257 nM and 88.5 nM

**Q.** And the TGI (HCC-2998 colon)?
**A.** 13800 nM and > 10000 nM

**Q.** And the GI50 (K-562 leukemia)?
**A.** 302 nM and 132 nM

**Q.** What about the TGI (K-562 leukemia) of the same compound?
**A.** > 100000 nM

**Q.** And the GI50 (MALME-3M melanoma)?
**A.** 58.4 nM and 63.8 nM

**Q.** And the TGI (MALME-3M melanoma)?
**A.** 317 nM and 480 nM

**Q.** And the GI50 (U251 CNS)?
**A.** 127 nM and 63.3 nM

**Q.** And the TGI (U251 CNS)?
**A.** 12600 nM and > 10000 nM

**Q.** What about the GI50 (SNB-75 CNS) of the same compound?
**A.** 23.5 nM and 21.7 nM

**Q.** What about the TGI (SNB-75 CNS) of the same compound?
**A.** 264 nM and 163 nM

**Q.** And the GI50 (SW-620 colon)?
**A.** 248 nM and 110 nM

**Q.** What about the TGI (SW-620 colon) of the same compound?
**A.** 16400 nM and > 10000 nM

**Q.** And the GI50 (SK-MEL-2 melanoma)?
**A.** 105 nM

**Q.** And the TGI (SK-MEL-2 melanoma)?
**A.** 494 nM

**Q.** And the GI50 (SK-MEL-5 melanoma)?
**A.** 103 nM and 99.2 nM

**Q.** And the TGI (SK-MEL-5 melanoma)?
**A.** 408 nM and 418 nM

**Q.** And the GI50 (IGROV1 ovarian)?
**A.** 40.7 nM and 30.3 nM

**Q.** What about the TGI (IGROV1 ovarian) of the same compound?
**A.** 249 nM and 212 nM

**Q.** What about the GI50 (M14 melanoma) of the same compound?
**A.** 149 nM and 111 nM

**Q.** What about the TGI (M14 melanoma) of the same compound?
**A.** 5100 nM and > 4680 nM

**Q.** What about the GI50 (SF-268 CNS) of the same compound?
**A.** 140 nM and 79.6 nM

**Q.** And the TGI (SF-268 CNS)?
**A.** 16800 nM and > 5750 nM

**Q.** And the GI50 (SNB-19 CNS)?
**A.** 143 nM and 77.3 nM

**Q.** And the TGI (SNB-19 CNS)?
**A.** 7790 nM and > 10000 nM

**Q.** What about the GI50 (HOP-62 NSCLC) of the same compound?
**A.** 126 nM and 81 nM

**Q.** And the TGI (HOP-62 NSCLC)?
**A.** 1390 nM and 1410 nM

**Q.** And the GI50 (COLO 205 colon)?
**A.** 145 nM and 92.4 nM

**Q.** And the TGI (COLO 205 colon)?
**A.** 1510 nM and 1490 nM

**Q.** What about the GI50 (CCRF-CEM leukemia) of the same compound?
**A.** 203 nM and 87.4 nM

**Q.** And the TGI (CCRF-CEM leukemia)?
**A.** > 100000 nM

**Q.** And the GI50 (OVCAR-8 ovarian)?
**A.** 154 nM and 69.7 nM

**Q.** What about the TGI (OVCAR-8 ovarian) of the same compound?
**A.** 2900 nM and > 4100 nM

**Q.** And the GI50 (LOX IMVI melanoma)?
**A.** 52.6 nM and 37.6 nM

**Q.** What about the TGI (LOX IMVI melanoma) of the same compound?
**A.** 1270 nM and 1320 nM

**Q.** What about the GI50 (OVCAR-3 ovarian) of the same compound?
**A.** 119 nM and 65.6 nM

**Q.** What about the TGI (OVCAR-3 ovarian) of the same compound?
**A.** 6490 nM and > 3390 nM

**Q.** And the GI50 (NCI-H522 lung)?
**A.** 51.3 nM

**Q.** What about the TGI (NCI-H522 lung) of the same compound?
**A.** 653 nM

**Q.** And the GI50 (SR leukemia)?
**A.** 153 nM and 113 nM

**Q.** And the TGI (SR leukemia)?
**A.** 14900 nM and > 10000 nM

**Q.** And the GI50 (HL-60(TB) leukemia)?
**A.** 717 nM and 361 nM

**Q.** And the TGI (HL-60(TB) leukemia)?
**A.** 9780 nM and > 6740 nM

**Q.** And the GI50 (MCF7 breast)?
**A.** 140 nM and 59.3 nM

**Q.** What about the TGI (MCF7 breast) of the same compound?
**A.** 47900 nM and > 10000 nM

**Q.** And the GI50 (SF-295 CNS)?
**A.** 49.5 nM and 37.3 nM

**Q.** What about the TGI (SF-295 CNS) of the same compound?
**A.** 422 nM and 328 nM

**Q.** And the GI50 (HOP-92 NSCLC)?
**A.** 109 nM and 27.9 nM

**Q.** And the TGI (HOP-92 NSCLC)?
**A.** 644 nM and 188 nM

**Q.** And the GI50 (OVCAR-4 ovarian)?
**A.** 105 nM and 51.4 nM

Source: PubChem BioAssay (NCI)
